From paper PMC11343458, “Extracellular proteolysis of tandemly duplicated pheromone propeptides affords additional complexity to bacterial quorum sensing” (PLOS Biology, 2024)
Read-outs that look alike come from different tables or passages of the source. No end group written: not given here.

How the values were obtained:
[1] = test system: extracellular proteases in supernatants of B. subtilis 168, WB800 and individual protease mutants; experiment: Peptide maturation assay with B. subtilis supernatants, read by Rap^105 thermal shift; type: biochemical, Bacillus subtilis; details: 100 μm peptide, 1 h room temperature; 8 single protease mutants
Description: Overnight cultures of either B. subtilis strains 168, WB800, Δmpr, Δbpr, ΔaprE, Δepr, ΔwprA, Δvpr, ΔnprB, ΔnprE in GM1 media were diluted 1:20 into GM1 media and incubated at 37°C at 250 rpm. After 2 h, the OD600 were measured and adjusted to 0.5 with GM1 media, and 1 ml of bacterial cultures were centrifuged at 8,000 g for 2 min at room temperature and the supernatants were filtered using 0,2 μm nitrocellulose filters; 1 μl of 10 mM synthetic version of the mature pheromones (RRGHTA, RRGHTAS, SRGHTS, RGHTS, ERPVGT, Imat1^3T, Imat2^3T, Imat1^105, Imat2^105, and Imat3^105) were added to 99 μl of supernatant obtaining a final concentration of 100 μm and incubated for 1 h at room temperature. After incubation, reaction was stopped by incubation at 95°C for 5 min and sample was kept and used in Thermal Shift Assays (see before). In the kinetic assays, samples were inactivated at different times by incubation at 95°C for 5 min. Experiments were validated by experimental triplicates of 3 biological replicates.
(§1) The thermal shift assay was conducted in a CFX Opus Real-Time PCR system (Biorad). Samples of 20 μl containing 20× Sypro Orange (Sigma-Aldrich) and 50 μm of protein in a 20 mM Tris (pH 8) and 250 mM NaCl buffer or filtered supernatant in peptide maturation assays (see below) were loaded in 96-well PCR plates. In the cases where peptide interaction was analyzed, synthetic peptides at a final concentration of 100 μm were added to the assays. Samples were heated from 20 to 85°C in steps of 1 degree. Fluorescent intensity was plotted versus temperature and integrated with either CFX Opus Real-Time PCR automate model or GraphPad Prism software using a Boltzmann model to calculate melting temperatures.

Rap^105 = experiment: Thermal shift assay of Rap^105 with synthetic peptides; type: binding, phage phi105; details: 100 μm peptide, without supernatant incubation
Description: as §1

[2] = test system: Rap^3T (PsrfA-3xYFP competence reporter); experiment: Competence reporter assay (PsrfA-3xYFP) in strain overexpressing Rap^3T; type: cell-based, Bacillus subtilis; details: strain 9834 hsRap(phi3T) Psrf-YFP, 1mM IPTG, 4hrs in MC, peptides added after 1 hr; for YFP, Mean: mean of 3 repeats
Text: (§2) Bacillus strains AES9822 (SacA::PsrfA-3xYFP Cm), AES9824 (SacA::PspoIIG-3xYFP Cm), AES9834 (sacA::Psrf-3xYFP cm amyE::hsRap^3T spec), and AES9836 ([…] cm amyE::hsRap^3T spec) were constructed by natural transformation of the pAEC1003, pAEC1103, and pAEC2836 (see next section) plasmids into a PY79;xpf background Bacillus subtilis strain.
For competence experiments, the expression levels of the srf promoter reporter were determinate in a liquid culture generated from a single colony that was inoculated into MC competence media. The strains were grown at 37° with shaking at 220 RPM, with or without addition of 1 mM IPTG. […]

[3] = test system: Rap^3T (PspoIIG-3xYFP sporulation reporter); experiment: Sporulation assay (PspoIIG-3xYFP reporter) in strain overexpressing Rap^3T; type: cell-based, Bacillus subtilis; details: strain 9836 hsRap(phi3T) PspoIIG-YFP, 1mM IPTG, 6 hrs in DSM, peptides added after 4.5hrs; for Mean %ON: mean of 3 repeats
Text: as §2
For sporulation experiments, the expression levels of spoIIG promoter reporter were determinate in a liquid culture from an overnight starter in LB were diluted 1:100 into Schaeffer’s sporulation medium (DSM). The strains were grown at 37° with shaking at 220 RPM, with or without addition of 1 mM IPTG. After 4.5 h of growth, peptides were added at a concentration of 10 μm. Following an additional 1.5 h of growth, YFP fluorescence was measured using a Beckman Coulter cytoflex flow cytometer.

Rap^3T = experiment: Microscale thermophoresis (MST) of peptide binding to Rap^3T; design: species or system Bacillus phage phi3T
Description: Rap^3T was fluorescently labeled with NT-647 amine reactive dye from the Monolith NT Protein Labeling kit RED-NHS (NanoTemper Technologies) according to the manufacturer’s instructions. Briefly, 100 μm solution of the protein was mixed with 3× dye solution, incubated 30 min in dark, and then purified by gravity in a 5 ml size exclusion column equilibrated with dialysis buffer (20 mM Tris-HCl (pH 8), 250 mM NaCl) supplemented with 0.1% pluronic and 5% glycerol to remove free dye. Rap^105 was fluorescently labeled using His-Tag Labeling Kit RED-tris-NTA 2nd Generation. Briefly, 500 nM of protein was mixed with 5 μm dye in PBS supplemented with 0,02% of tween incubated in dark at room temperature for 30 min and centrifuged at 10,000 g for 10 min at 4°C, transferred to a fresh tube, and used in the assays immediately. Labeled proteins were used at a final optimized concentration of 20 nM in the case of Rap^3T and 250 nM in the case of Rap^105. For the measurements of EC50, a 16-point 2-fold serial dilution (ranged from 2 to 3 × 10^−5 μm) of the peptides were prepared in presence of the corresponding labeled Rap protein. After 15-min incubation at room temperature, samples were filled into standard Capillaries (K005, NanoTemper Technologies) and MST measurements were performed on a Monolith NT.115 (NanoTemper Technologies) in RED channel using 60% to 75% of LED excitation power and medium or high MST power for Rap^3T or Rap^105, respectively. […] Data analyses were performed with M.O. Affinity Analysis software (NanoTermper Technologies) applying cooperative (Hill coefficient) and non-cooperative (Kd model) models, with the first one yielding better fitting values.

[4] = target: Rap^3T (Bacillus phage phi3T); experiment: thermal shift assay; Sypro Orange, 50 μm protein, 100 μm synthetic peptide, 20 mM Tris (pH 8), 250 mM NaCl (or filtered supernatant in the maturation assays), heated from 20 to 85°C
[5] = target: Rap^3T (Bacillus phage phi3T); experiment: MST; Rap^3T labelled with NT-647 (RED-NHS) at 20 nM; peptides in a 16-point 2-fold dilution from 2 to 3 x 10^-5 μm; 20 mM Tris-HCl (pH 8), 250 mM NaCl, 0.1% pluronic, 5% glycerol; 15 min at room temperature; Hill model

ERPVGTLKLA [Imat1^105, immature synthetic peptide […]]
maturation by supernatants of individual protease mutants of B. subtilis 168 (Rap^105 thermal shift) [1]: only for ΔwprA mutants | stabilization of Rap^105 in thermal shift assay (Rap^105): minimal stabilization

LKLAERPVGT [Imat2^105, immature synthetic peptide […]]
maturation by supernatants of individual protease mutants of B. subtilis 168 (Rap^105 thermal shift) [1]: maturated for all the supernatants | stabilization of Rap^105 in thermal shift assay (Rap^105): destabilization

RRGHTASIGFTDGHSYDIA
YFP, Mean [2]: 8810.67 | YFP, repeat I [2]: 5838 | YFP, repeat II [2]: 10641 | YFP, repeat III [2]: 9953 | Mean %ON [3]: 42.9% | %ON (YFP), repeat I [3]: 59.6% | YFP, repeat I [3]: 5294 | % ON (YFP), repeat II [3]: 39.8% | YFP, repeat II [3]: 2641 | % ON (YFP), repeat III [3]: 29.3% | YFP, repeat III [3]: 2055

RRGHTASIGFTDGHSYDIA [Long1]
EC50 (Rap^3T; MST, Hill model, target 2e-8, MST-Power Medium, Nano - RED, 25.0°C, replicate 1 (first merge-set, c1), read-out: EC50 (Hill fit)): 133 nM | EC50 (Rap^3T; MST, Hill model, target 2e-8, MST-Power Medium, Nano - RED, 25.0°C, replicate 2 (second merge-set, c4), read-out: EC50 (Hill fit)): 134 nM | EC50 (Rap^3T; MST, Hill model, target 2e-8, MST-Power Medium, Nano - RED, 25.0°C, replicate 3 (third merge-set, c7), read-out: EC50 (Hill fit)): 186 nM

SIGFTDGHSYDIASRGHTS
YFP, Mean [2]: 8018.67 | YFP, repeat I [2]: 5205 | YFP, repeat II [2]: 10226 | YFP, repeat III [2]: 8625 | Mean %ON [3]: 37.1% | %ON (YFP), repeat I [3]: 51.1% | YFP, repeat I [3]: 4889 | % ON (YFP), repeat II [3]: 30.7% | YFP, repeat II [3]: 2305 | % ON (YFP), repeat III [3]: 29.5% | YFP, repeat III [3]: 2121

SIGFTDGHSYDIASRGHTS [Long2]
EC50 (Rap^3T; MO.Affinity export, one merged set, target 2e-8, On Time evaluation, hot region 4-5, excitation power 10, confidence limits 0 and #NUM! (no real fit), read-out: EC50 (Hill fit), merged set): 19800 nM

SSDVKITERPVGT [Imat0^105, immature synthetic peptide […]]
maturation by supernatants of individual protease mutants of B. subtilis 168 (Rap^105 thermal shift) [1]: reduced or null maturation activity in ΔnprE, Δbpr, and ΔwprA mutants | stabilization of Rap^105 in thermal shift assay (Rap^105): destabilization

RRGHTAS
stabilization of the denaturation temperature [4]: > 20 °C | EC50 [5]: 6.7 nM

SRGHTS
stabilization of the denaturation temperature [4]: > 20 °C | EC50 [5]: 20.8 nM

RGHTS
stabilization of the denaturation temperature [4]: > 20 °C | EC50 [5]: 69.8 nM

RRGHTA
dTm [4]: 75 °C | stabilization of the denaturation temperature [4]: > 20 °C | EC50 [5]: 5.28 nM
